Laboratory results taken from US20100015620A1, “CANCER-LINKED GENES AS BIOMARKERS TO MONITOR RESPONSE TO IMPDH INHIBITORS” (priority 2006, published 2010).

Assays:
[1] = test system: HT-29, K-562 and KG-1 cells; experiment: GTP pool depletion and repletion, and cell cycle block, in cell lines; assay type: cell-based, human
Description: The present identification of relevant biomarkers was cognizant of the need to capture genes that move with respect to relevant clinical experiments. For example, IMPDH inhibition results in the cell cycle halting at the G1 border. […] Concentration depletion of GTP was measured in HT-29, K-562 and KG-1 cells. DMSO was used as control. […] For example, PDE7A and RRM2 were deregulated only on GTP repletion (which occurred within 90 minutes after drug removal). Thus, the present experiments have correlated gene involvement with the real biological endpoint for IMPDH inhibition.

both IMPDH isozymes = settings: cited from earlier work
[2] = test system: human peripheral lymphocytes stimulated with either B-cell or T-cell mitogens; settings: cited from earlier work

For `CC[C@H](CC#N)OC(=O)N[C@@H](C)c1cccc(NC(=O)Nc2ccc(-c3cnco3)c(OC)c2)c1` [AVN-944], the “Effect on GTP pools” value ([1]; HT-29, K-562 and KG-1 cells, DMSO control) was “depleted GTP pools”, the “Time to GTP repletion after drug removal” value ([1]; after drug removal) was ≤ 90 min and the “Effect on cell cycle” value ([1]; at concentrations of AVN-944 that depleted GTP pools) was “S phase cell cycle block”. For the same compound, the Ki (both IMPDH isozymes) was 7 to 10 nM and the IC50 [2] was 20 to 100 nM.
